From ChEMBL document CHEMBL4665887, “Identification, Structure-Activity Relationships of Marine-Derived Indolocarbazoles, and a Dual PKCθ/δ Inhibitor with Potent Antipancreatic Cancer Efficacy” (J Med Chem, 2020) come the findings set out here.

Series [1] is described as follows: Toxicity in BALB/c mouse model of patient-derived xenograft implanted with patient-derived pancreatic cancer cells assessed as effect on normal anatomical structures of kidney at 30 mg/kg, ip QD for 18 days relative to control. The series is classed as organism-based. The following applies: in vivo, 432 h, time 18 day. (In xenograft studies the graft and the host belong to different species.)

The nature of series [2]: Antitumor activity against patient-derived pancreatic cancer cells xenografted in BALB/c mouse model of patient-derived xenograft assessed as inhibition of tumor growth at 30 mg/kg, ip QD for 18 days relative to control. The following applies: Homo sapiens, Pancreatic cancer cell, 432 h, time 18 day, read-out: TGI. The series is classed as functional.
Series [3] can be described thus: Toxicity in nude BALB/c mouse xenografted with human BXPC-3 cells assessed as effect on body weight level at 30 mg/kg, ip QD for 18 days relative to control. The following applies: in vivo, 432 h, time 18 day. The series is classed as organism-based.
Series [4] in a line: Toxicity in BALB/c mouse model of patient-derived xenograft implanted with patient-derived pancreatic cancer cells assessed as effect on body weight at 30 mg/kg, ip QD for 18 days relative to control. The following applies: in vivo, 432 h, time 18 day. The series is classed as organism-based.
A short description of series [5]: Toxicity in BALB/c mouse model of patient-derived xenograft implanted with patient-derived pancreatic cancer cells assessed as effect on normal anatomical structures of spleen at 30 mg/kg, ip QD for 18 days relative to control. The series is classed as organism-based. The following applies: in vivo, 432 h, time 18 day.
The nature of series [6]: Toxicity in BALB/c mouse model of patient-derived xenograft implanted with patient-derived pancreatic cancer cells assessed as effect on normal anatomical structures of liver at 30 mg/kg, ip QD for 18 days relative to control. The series is classed as organism-based. The following applies: in vivo, 432 h, time 18 day.
A short description of series [7]: Toxicity in BALB/c mouse model of patient-derived xenograft implanted with patient-derived pancreatic cancer cells assessed as effect on normal anatomical structures of lung at 30 mg/kg, ip QD for 18 days relative to control. The series is classed as organism-based. The following applies: in vivo, 432 h, time 18 day.
A short description of series [8]: Toxicity in BALB/c mouse model of patient-derived xenograft implanted with patient-derived pancreatic cancer cells assessed as effect on normal anatomical structures of heart at 30 mg/kg, ip QD for 18 days relative to control. The series is classed as organism-based. The following applies: in vivo, 432 h, time 18 day.
The subject of a further series is BXPC-3. Put plainly: Antitumor activity against human BXPC-3 cells xenografted in nude BALB/c mouse assessed as inhibition of tumor growth at 30 mg/kg, ip QD for 18 days relative to control. The series is classed as functional. The following applies: BXPC-3, ip, 432 h, time 18 day, read-out: TGI.

Regarding `CC(=O)c1cc2c(o1)C(=O)c1ccccc1C2=O` [NAPABUCASIN], the Activity result in [1], in [3], in [4], in series [5], in series [6] and in [7] was “Non-Toxic” in each case. In addition, in [8], the Activity entry is “Non-Toxic”. Also, the figures for the inhibition in vivo at 30 mg/kg (in series [2]; with BXPC-3) were 41.8% and 34.2%, respectively.
